# Measured values taken from PubChem BioAssay (NCI).
# “And” between values parts separate entries of the source, which are not always exact repeats. Identical values can stand only once.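 Five concentrations, 48 hours, 96-well plates. Here, GI50 denotes the concentration required for 50% inhibition of growth. TGI denotes the concentration required for complete inhibition of growth.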
# Tests used:
# Assay in all cases: NCI anticancer screen, dose series, 48 h
# 786-0 renal = system: 786-0 renal
# A498 renal = system: A498 renal
# A549 NSCLC = system: A549 NSCLC
# ACHN renal = system: ACHN renal
# BT-549 breast = system: BT-549 breast
# CAKI-1 renal = system: CAKI-1 renal
# CCRF-CEM leukemia = system: CCRF-CEM leukemia
# COLO 205 colon = system: COLO 205 colon
# DU-145 prostate = system: DU-145 prostate
# EKVX NSCLC = system: EKVX NSCLC
# HCC-2998 colon = system: HCC-2998 colon
# HCT-116 colon = system: HCT-116 colon
# HCT-15 colon = system: HCT-15 colon
# HL-60(TB) leukemia = system: HL-60(TB) leukemia
# HOP-62 NSCLC = system: HOP-62 NSCLC
# HOP-92 NSCLC = system: HOP-92 NSCLC
# HS 578T breast = system: HS 578T breast
# HT29 colon = system: HT29 colon
# IGROV1 ovarian = system: IGROV1 ovarian
# K-562 leukemia = system: K-562 leukemia
# KM12 colon = system: KM12 colon
# LOX IMVI melanoma = system: LOX IMVI melanoma
# M14 melanoma = system: M14 melanoma
# MALME-3M melanoma = system: MALME-3M melanoma
# MCF7 breast = system: MCF7 breast
# MDA-MB-231 breast = system: MDA-MB-231 breast
# MDA-MB-435 = system: MDA-MB-435
# MOLT-4 leukemia = system: MOLT-4 leukemia
# NCI-H226 lung = system: NCI-H226 lung
# NCI-H23 lung = system: NCI-H23 lung
# NCI-H460 lung = system: NCI-H460 lung
# NCI-H522 lung = system: NCI-H522 lung
# NCI/ADR-RES ovarian = system: NCI/ADR-RES ovarian
# OVCAR-3 ovarian = system: OVCAR-3 ovarian
# OVCAR-4 ovarian = system: OVCAR-4 ovarian
# OVCAR-5 ovarian = system: OVCAR-5 ovarian
# OVCAR-8 ovarian = system: OVCAR-8 ovarian
# PC-3 prostate = system: PC-3 prostate
# RPMI-8226 leukemia = system: RPMI-8226 leukemia
# RXF 393 renal = system: RXF 393 renal
# SF-268 CNS = system: SF-268 CNS
# SF-295 CNS = system: SF-295 CNS
# SF-539 CNS = system: SF-539 CNS
# SK-MEL-2 melanoma = system: SK-MEL-2 melanoma
# SK-MEL-28 melanoma = system: SK-MEL-28 melanoma
# SK-MEL-5 melanoma = system: SK-MEL-5 melanoma
# SK-OV-3 ovarian = system: SK-OV-3 ovarian
# SN12C renal = system: SN12C renal
# SNB-19 CNS = system: SNB-19 CNS
# SNB-75 CNS = system: SNB-75 CNS
# SR leukemia = system: SR leukemia
# SW-620 colon = system: SW-620 colon
# T-47D breast = system: T-47D breast
# TK-10 renal = system: TK-10 renal
# U251 CNS = system: U251 CNS
# UACC-257 melanoma = system: UACC-257 melanoma
# UACC-62 melanoma = system: UACC-62 melanoma
# UO-31 renal = system: UO-31 renal
structure (smiles),measurement,setting,value
C[C@H](NC(=O)c1c(N)nn2cccnc12)c1cc2cccc(C#Cc3cnn(C)c3)c2c(=O)n1-c1ccccc1,GI50,786-0 renal,3.97 µM and 3.56 µM
same,TGI,786-0 renal,> 10 µM and 16.9 µM
same,GI50,A498 renal,1.17 µM and 0.241 µM
same,TGI,A498 renal,8.24 µM and 1.79 µM
same,GI50,A549 NSCLC,8.92 µM and 4.98 µM
same,TGI,A549 NSCLC,> 10 µM and 30.2 µM
same,GI50,ACHN renal,3.39 µM and 2.92 µM
same,TGI,ACHN renal,> 10 µM and 18.8 µM
same,GI50,BT-549 breast,1.6 µM and 1.42 µM
same,TGI,BT-549 breast,> 10 µM and 15.2 µM
same,GI50,CAKI-1 renal,3.81 µM
same,TGI,CAKI-1 renal,> 10 µM
same,GI50,CCRF-CEM leukemia,0.588 µM and 0.357 µM
same,TGI,CCRF-CEM leukemia,> 100 µM
same,GI50,COLO 205 colon,4.41 µM and 1.8 µM
same,TGI,COLO 205 colon,> 10 µM and 5.23 µM
same,GI50,DU-145 prostate,8.71 µM and 7.69 µM
same,TGI,DU-145 prostate,> 100 µM
same,GI50,EKVX NSCLC,9.84 µM and 4.67 µM
same,TGI,EKVX NSCLC,> 100 µM
same,GI50,HCC-2998 colon,> 10 µM and 4.94 µM
same,TGI,HCC-2998 colon,> 10 µM and 19.9 µM
same,GI50,HCT-116 colon,2.61 µM and 6.65 µM
same,TGI,HCT-116 colon,> 10 µM and 33.9 µM
same,GI50,HCT-15 colon,2.69 µM and 4.68 µM
same,TGI,HCT-15 colon,> 10 µM and 26.4 µM
same,GI50,HL-60(TB) leukemia,0.774 µM and 0.813 µM
same,TGI,HL-60(TB) leukemia,> 10 µM and 9.86 µM
same,GI50,HOP-62 NSCLC,8.58 µM
same,TGI,HOP-62 NSCLC,> 10 µM
same,GI50,HOP-92 NSCLC,0.524 µM and 1.41 µM
same,TGI,HOP-92 NSCLC,7.35 µM and 20.4 µM
same,GI50,HS 578T breast,1.83 µM and 1.26 µM
same,TGI,HS 578T breast,> 10 µM and 46.3 µM
same,GI50,HT29 colon,2.31 µM and 4 µM
same,TGI,HT29 colon,> 10 µM and 43.3 µM
same,GI50,IGROV1 ovarian,0.439 µM and 0.722 µM
same,TGI,IGROV1 ovarian,2.89 µM and 5.47 µM
same,GI50,K-562 leukemia,> 10 µM and 10.4 µM
same,TGI,K-562 leukemia,> 100 µM
same,GI50,KM12 colon,5.98 µM and 9.53 µM
same,TGI,KM12 colon,> 10 µM and 61.4 µM
same,GI50,LOX IMVI melanoma,3.44 µM
same,TGI,LOX IMVI melanoma,> 10 µM and 40 µM
same,GI50,M14 melanoma,> 10 µM and 11.8 µM
same,TGI,M14 melanoma,> 10 µM and 30.9 µM
same,TGI,MALME-3M melanoma,> 10 µM and 20 µM
same,GI50,MCF7 breast,1.1 µM and 1.01 µM
same,TGI,MCF7 breast,> 10 µM and 87.7 µM
same,GI50,MDA-MB-231 breast,5.98 µM and 12.3 µM
same,TGI,MDA-MB-231 breast,> 10 µM and 54.1 µM
same,GI50,MDA-MB-435,5.87 µM and 5.57 µM
same,TGI,MDA-MB-435,> 10 µM and 60.8 µM
same,GI50,MOLT-4 leukemia,2.17 µM and 1.96 µM
same,TGI,MOLT-4 leukemia,> 10 µM and 6.55 µM
same,GI50,NCI-H226 lung,> 10 µM and 11.8 µM
same,TGI,NCI-H226 lung,> 10 µM and 32.8 µM
same,GI50,NCI-H23 lung,4.99 µM and 11 µM
same,TGI,NCI-H23 lung,> 10 µM and 24.7 µM
same,GI50,NCI-H460 lung,3.8 µM and 5.2 µM
same,TGI,NCI-H460 lung,> 10 µM and 23.9 µM
same,GI50,NCI-H522 lung,5.27 µM and 10.5 µM
same,TGI,NCI-H522 lung,> 10 µM and 54.8 µM
same,GI50,NCI/ADR-RES ovarian,6.28 µM and 4.55 µM
same,TGI,NCI/ADR-RES ovarian,> 10 µM and 56 µM
same,GI50,OVCAR-3 ovarian,4.27 µM and 4.6 µM
same,TGI,OVCAR-3 ovarian,> 10 µM and 27.1 µM
same,GI50,OVCAR-4 ovarian,8.72 µM and 13.3 µM
same,TGI,OVCAR-4 ovarian,> 10 µM and 68.4 µM
same,GI50,OVCAR-5 ovarian,8.65 µM and 6.17 µM
same,TGI,OVCAR-5 ovarian,> 10 µM and 28.7 µM
same,GI50,OVCAR-8 ovarian,> 10 µM and 12.6 µM
same,TGI,OVCAR-8 ovarian,> 100 µM
same,GI50,PC-3 prostate,1.6 µM and 1.98 µM
same,TGI,PC-3 prostate,> 100 µM
same,GI50,RPMI-8226 leukemia,3.23 µM and 3.84 µM
same,TGI,RPMI-8226 leukemia,> 10 µM and 31.4 µM
same,GI50,RXF 393 renal,2.02 µM and 1.58 µM
same,TGI,RXF 393 renal,> 10 µM and 9.57 µM
same,GI50,SF-268 CNS,> 10 µM and 10.1 µM
same,TGI,SF-268 CNS,> 10 µM and 72.2 µM
same,GI50,SF-295 CNS,2.52 µM and 2.47 µM
same,TGI,SF-295 CNS,> 10 µM and 15.6 µM
same,GI50,SF-539 CNS,3.33 µM and 3.36 µM
same,TGI,SF-539 CNS,> 10 µM and 16.4 µM
same,GI50,SK-MEL-2 melanoma,> 10 µM and 6.61 µM
same,TGI,SK-MEL-2 melanoma,> 10 µM and 41.1 µM
same,GI50,SK-MEL-28 melanoma,3.08 µM and 3.9 µM
same,TGI,SK-MEL-28 melanoma,> 10 µM and 38.6 µM
same,GI50,SK-MEL-5 melanoma,4.54 µM and 12.3 µM
same,TGI,SK-MEL-5 melanoma,> 10 µM and 29.1 µM
same,GI50,SK-OV-3 ovarian,2.89 µM and 2.13 µM
same,TGI,SK-OV-3 ovarian,> 10 µM and 15.5 µM
same,GI50,SN12C renal,4.09 µM and 6.47 µM
same,TGI,SN12C renal,> 10 µM and 43.4 µM
same,GI50,SNB-19 CNS,6.27 µM and 10.4 µM
same,TGI,SNB-19 CNS,> 100 µM
same,GI50,SNB-75 CNS,0.679 µM and 0.531 µM
same,TGI,SNB-75 CNS,> 10 µM and 10.5 µM
same,GI50,SR leukemia,3.59 µM and 2.4 µM
same,TGI,SR leukemia,> 100 µM
same,GI50,SW-620 colon,3.14 µM and 11.9 µM
same,TGI,SW-620 colon,> 10 µM and 61 µM
same,GI50,T-47D breast,0.211 µM and 0.224 µM
same,TGI,T-47D breast,1.91 µM and 3.88 µM
same,GI50,TK-10 renal,2.07 µM and 1.38 µM
same,TGI,TK-10 renal,> 10 µM and 12.1 µM
same,GI50,U251 CNS,7.5 µM and 8.22 µM
same,TGI,U251 CNS,> 10 µM and 48.5 µM
same,GI50,UACC-257 melanoma,> 10 µM and 9.9 µM
same,TGI,UACC-257 melanoma,> 10 µM and 39.2 µM
same,GI50,UACC-62 melanoma,0.682 µM and 1.38 µM
same,TGI,UACC-62 melanoma,> 10 µM and 23.2 µM
same,GI50,UO-31 renal,0.666 µM and 0.981 µM
same,TGI,UO-31 renal,> 10 µM and 13.8 µM
